Test results reported in patent US10301348B2, “Compounds for use in prevention and treatment of neurodegenerative diseases and pain” (Academia Sinica, priority 2013, dated 2019).
“Also recorded” adds a separate entry of the source.

Columns and labels:
[1] = test system: SCA2 transgenic mice (ATAXN2^Q127); experiment: Rotarod performance of SCA2 transgenic mice; assay type: in vivo; conditions: compound in drinking water
Procedure: (§1) FIGS. 4A-B show the effects of T1-11 in preventing mutant SCA2 gene overexpression-induced protein aggregations and behavioral performance in SCA2 transgenic mice. (A) pSCA2-22Q-EGFP or pSCA2-104Q-EGFP-transfected cells were treated with 10 μM T1-11 or 10 μM JMF1907 (a T1-11-derived A2A-R agonist) for 24 h. Cells were harvested and subjected to a filter retardation assay or image acquisition. (B) Wild type (WT) or transgenic mice (SCA2) drank water with or without T1-11. Rotarod performance was used to measure the behavioral function of mice.
Animals. The C57BL/6 mice were purchased from National Laboratory Animal Center (Taiwan). The transgenic mice (ATAXN2^Q127) were provided by Dr. Pulst. Mice were kept in a soundproof room under a 12/12 h light/dark cycle and controlled temperature (22±2° C.). Food and water were available ad libitum. All efforts were made to minimize the number of animals used and their pain and discomfort, according to the principles and directives of the NIH Guide for the Care and Use of Laboratory Animals. […]
Rotarod performance. […] Motor coordination was assessed using a rotarod apparatus (UGO BASILE, Comerio, Italy) at an accelerated speed (10 to 28 rpm) over a period of 5 min. […] Latency to fall was automatically recorded. […]

[2] = test system: mice with acid-induced chronic widespread pain; experiment: Acid-induced chronic widespread pain model of fibromyalgia; assay type: in vivo
Procedure: (§2) FIGS. 10A-C show the analgesic effect of JMF3464 on a mouse model of fibromyalgia. […] Open arrows indicate the time mice received acid injection. Black arrows indicate the time mice received T1-11 (p.o.). […] The analgesic effect of JMF3464 is dose-dependent. The effective dose started from 100 μg/kg (i.p.).
Acid-induced chronic widespread pain model. The fibromyalgia model was modified from the acid-induced chronic pain model established by Sluka's group (Sluka et al., 2003 Pain. 106:229-239).
Mice were briefly anesthetized with 2% vaporized isoflurane and received an i.m. injection of 20 μL genistein (1 μM) in the left gastrocnemius muscle. After 3 minutes, an injection of 20 μL acid saline (pH 4.0) was given to the same site. The mice then developed long-lasting mechanical hyperalgesia for more than 2 weeks. Analgesic effects of T1-11 (p.o. with an 0.9-mm/7-cm gavage) were tested 4 days after mice had developed the mechanical hyperalgesia. Mechanical hyperalgesia was assayed by testing the withdrawal response of mouse hindpaws to 0.2-mN von Frey filament stimulation.

[3] = test system: mutant ATXN2 aggregations; experiment: Filter retardation assay of mutant SCA2 protein aggregation in pSCA2-104Q-EGFP-transfected cells; assay type: cell-based, Rat; conditions: 10 μM, 24 h
Procedure: as §1
Rat PC12 cells purchased from American Type Culture Collection (ATCC; Manassas, Va., USA) were maintained in DMEM supplemented with 10% horse serum and 5% FBS and incubated in a CO2 incubator (5%) at 37° C. LIPOFECTAMINE™ 2000 (Invitrogen) was used as a vehicle to transfer plasmids into cells according to the manufacture's protocol. Plasmids were kindly provided by Dr. Pulst (Department of Neurology, University of Utah, USA). Normally, 5 μg of DNA combined with 5 μl of LIPOFECTAMINE™ 2000 was applied to each well of 6-well plates. The plating number was (1˜1.5)×10^6 cells/well. After transfections for 6 h, cells were treated with reagents for another 24 h. Images were taken with a Zeiss Axiovert 200M inverted fluorescence microscope (Göttingen, Germany).
Filter retardation assay. […]

[4] = test system: SCA3 transgenic mice expressing ataxin-3-Q79; experiment: SCA3 transgenic mice: rotarod test and NeuN staining of pontine nuclei; conditions: 4-month-old SCA3 transgenic mice, daily oral 1 mg per day
Procedure: (A) SCA3 transgenic mice were given drinking water containing vehicle (0.2% DMSO) or T1-11 (0.1 mg/ml) beginning at 4 weeks-old.
Behavioral test. Balance and coordination functions of mice were determined by performing rotarod test. Mice were placed on the moving drum of a rotarod apparatus (Accelerating Model, Ugo Basile Biological Research Apparatus), which was then accelerated until mouse fell from the drum onto a plate to stop the timer. Latency to fall was measured in four daily trials over the course of 4 days.
Immunohistochemical staining. Wild-type or SCA3 transgenic mice were anesthetized and perfused transcardially with 4% paraformaldehyde in PBS. Brain was equilibrated in Tissue-Tek embedding medium and frozen in liquid nitrogen. Coronal sections (20 μm) prepared by cryostat sectioning were permeabilized in 0.1% Triton X-100, and incubated at 4° C. for 48 hours with diluted anti-NeuN monoclonal antiserum (Chemicon). Subsequently, sections were washed and incubated with biotinylated horse anti-mouse IgG followed by incubation with avidin-biotin-horseradish peroxidase complex. The sections were then washed and developed in a diaminobenzidine solution. NeuN-positive neurons were visualized and counted by a Leica DM2500 microscope equipped with a Retiga-2000R CCD camera (QImaging) and a 3-axis computer-controlled MAC 600 motorized stage (Ludl Electronics) with the aid of StereoInvestigator software (MBF Bioscience). Each analysis included the processing of 15 brain sections per mouse.

[5] = Oral bioavailability / pharmacokinetic study in ICR mice; assay type: in vivo; conditions: male, mouse, plasma, oral 10 mg/kg vs intravenous 1 mg/kg
Procedure: To measure oral bioavailability of a test compound, blood samples were collected from male ICR mice (6 weeks old; 20-25 g) after oral (10 mg/kg) or intravenous (1 mg/kg) administrations of the test compound. The blood samples collected at the indicated periods were extracted with methanol containing 0.1% formic acid, and then 10 μL of each extracted sample were injected to UPLC-MSMS for quantitation.
Pharmacokinetic Study. The compound was administered as aqueous solutions in normal saline. Male ICR mice were purchased from BioLASCO Taiwan Co., Ltd. To measure oral bioavailability of test compounds (T1-11 and JMF3464), blood samples were collected from male ICR mice (6 weeks old; […]) after oral (10 mg/kg) or intravenous (1 mg/kg) administrations of test compounds. For T1-11, blood samples were collected at 2, 10, 30, 60, 120, 360 minutes after intravenous administration and at 15, 30, 45, 60, 120, 360 minutes after oral administration. For JMF3464, the blood samples were collected at 2, 10, 30, 60, 120, 240, 360, 480 minutes after intravenous administration and at 15, 30, 60, 90, 120, 240, 360, 480 minutes after oral administration. The blood samples were extracted by methanol with 0.1% formic acid, and then 10 μL of the extracted samples were injected to UPLC-MSMS to for quantitation.
The pharmacokinetic parameters were obtained using a pharmacokinetic program WinNonlin, fitting data to a noncompartmental model. […] The total plasma clearance (CL) was calculated as dose/AUCi.v.. The oral bioavailability (F) of the test compound by oral administration was calculated from the AUC0-∞ of the oral dose divided by the AUC0-∞ of the i.v. dose.

[6] = background statement, species not given; cited from earlier work
[7] = test system: mice treated with intermittent cold stress; experiment: Intermittent cold stress model of fibromyalgia; assay type: in vivo; conditions: T1-11 i.p.
Procedure: as §2
Intermittent cold stress model. The fibromyalgia model was developed by Ueda's group, in which mice were treated with intermittent cold stress for 2 days (Nishiyori and Ueda, 2008 Mol Pain. 4:52). Mice treated with intermittent cold stress developed long-lasting (>2 weeks) mechanical and thermal hyperalgesia. Analgesic effects of JMF3464 (i.p. or p.o.) were tested in these mice 5 days after intermittent cold stress. Mechanical hyperalgesia was assayed by testing the withdrawal response of mouse hindpaws to 0.2-mN von Frey filament stimulation.

## OC[C@H]1O[C@@H](n2cnc3c(NCc4ccc(O)cc4)ncnc32)[C@H](O)[C@@H]1O [Compound T1-11, N^6-(4-hydroxybenzyl)adenosine]
[1]
  behavioral performance (rotarod): effective
[2]; i.p.
  analgesic effect, i.p.: excellent analgesic effects
[2]; p.o., up to 2 mg/kg, von Frey mechanical hyperalgesia
  analgesic effect, oral administration: no analgesic effect
[3]
  mutant ATXN2 aggregations: effective is preventing mutant ATXN2 aggregations
[4]
  pontine neuronal death (NeuN staining): significantly ameliorated neuronal death in the pontine nuclei; also recorded: significantly alleviated pontine neuronal death
  rotarod performance: significantly better than that of vehicle-treated ataxin-3-Q79 mice; also recorded: significantly improved rotarod performance
[5]
  bioavailability: 2.8%
[6]
  bioavailability (F): < 5%
[7]
  analgesic effect, i.p.: excellent analgesic effects
